This note sets out measurements from ChEMBL document CHEMBL5154787 (J Med Chem, 2022).

The target in series [1] is Cytochrome P450 3A4 (Homo sapiens, UniProt P08684). In words: Inhibition of CYP3A4 (unknown origin) incubated for 10 mins in presence of NADPH by LC-MS/MS analysis. The format is ADME.
The nature of series [2]: Metabolic stability in human liver microsomes assessed as parent compound remaining at 0.5 uM incubated for 10 mins in presence of NADPH by LC-MS/MS analysis. The format is ADME, Microsome. The following applies: read-out: Stability. Background: Microsomes from liver hold many membrane-bound enzymes, among them those of drug oxidation.
In series [3] the target is T1, AP2-associated protein kinase 1 (Homo sapiens, UniProt Q2M2I8). In words: Inhibition of bacterially expressed GST-Xa-tagged human AAK1 using 5-FAM-labelled Aha-KEEQSQITSQVTGQIGWR-NH2 peptide as substrate incubated for 3 hrs in presence of ATP by electrophoretic analysis.
The target in series [4] is AP2-associated protein kinase 1 (Mus musculus, UniProt Q3UHJ0). In words: Displacement of 3H-LP-927443 from AAK1 in C57BL6 mouse brain homogenate assessed as inhibition constant incubated for 1 hr by liquid scintillation counter analysis. The format is tissue-based. For orientation: Loss of bound radioactivity is the signal in a displacement assay; it reports binding, not function.

Series [5] concerns the target T1, AP2-associated protein kinase 1. In words: Inhibition of full length human AAK1 expressed in HEK293F cells assessed as suppression of AP2 phosphorylation measured after 3 hrs by Western blot analysis based cellular assay. The class given is cell-based. (In general: A western blot detects proteins with antibodies after separation by electrophoresis.)
Series [6] is described as follows: Metabolic stability in mouse liver microsomes assessed as parent compound remaining at 0.5 uM incubated for 10 mins in presence of NADPH by LC-MS/MS analysis. The class given is ADME, Microsome. The following applies: liver microsomes, read-out: Stability.
The nature of series [7]: Metabolic stability in rat liver microsomes assessed as parent compound remaining at 0.5 uM incubated for 10 mins in presence of NADPH by LC-MS/MS analysis. The class given is ADME, Microsome. The following applies: read-out: Stability.

The pIC50 is the negative decadic logarithm of the IC50, by convention in mol/L. In general, pKi refers to −log10 of the Ki, conventionally taken in molar units.

pIC50, pKi: −log10 of the molar value.

T1 sequence (Q2M2I8 whole entry): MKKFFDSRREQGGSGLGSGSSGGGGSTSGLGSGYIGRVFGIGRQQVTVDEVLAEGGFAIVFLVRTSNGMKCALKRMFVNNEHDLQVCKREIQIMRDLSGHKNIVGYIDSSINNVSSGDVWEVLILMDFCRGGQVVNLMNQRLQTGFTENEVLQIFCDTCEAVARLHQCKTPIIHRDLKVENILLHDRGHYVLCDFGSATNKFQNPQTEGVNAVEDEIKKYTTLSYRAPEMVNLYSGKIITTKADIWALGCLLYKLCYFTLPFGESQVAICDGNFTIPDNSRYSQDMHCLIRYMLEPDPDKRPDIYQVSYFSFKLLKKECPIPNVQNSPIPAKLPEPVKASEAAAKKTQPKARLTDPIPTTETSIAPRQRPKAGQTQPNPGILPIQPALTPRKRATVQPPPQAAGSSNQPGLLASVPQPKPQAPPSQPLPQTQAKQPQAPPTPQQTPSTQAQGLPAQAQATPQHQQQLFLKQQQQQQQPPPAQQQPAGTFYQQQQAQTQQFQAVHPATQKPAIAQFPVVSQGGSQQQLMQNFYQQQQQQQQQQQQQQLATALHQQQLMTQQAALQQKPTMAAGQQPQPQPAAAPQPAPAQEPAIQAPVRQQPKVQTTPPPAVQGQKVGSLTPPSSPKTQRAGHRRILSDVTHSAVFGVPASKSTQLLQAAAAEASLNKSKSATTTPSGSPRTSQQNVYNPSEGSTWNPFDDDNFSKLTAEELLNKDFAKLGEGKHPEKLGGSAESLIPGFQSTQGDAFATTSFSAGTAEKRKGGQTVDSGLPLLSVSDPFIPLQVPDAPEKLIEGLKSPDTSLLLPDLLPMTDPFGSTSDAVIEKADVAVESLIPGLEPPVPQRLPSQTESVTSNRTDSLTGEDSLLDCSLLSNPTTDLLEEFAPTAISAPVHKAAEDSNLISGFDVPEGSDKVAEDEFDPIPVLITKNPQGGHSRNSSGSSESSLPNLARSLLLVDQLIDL
Chain of Cytochrome P450 3A4 (P08684 whole entry): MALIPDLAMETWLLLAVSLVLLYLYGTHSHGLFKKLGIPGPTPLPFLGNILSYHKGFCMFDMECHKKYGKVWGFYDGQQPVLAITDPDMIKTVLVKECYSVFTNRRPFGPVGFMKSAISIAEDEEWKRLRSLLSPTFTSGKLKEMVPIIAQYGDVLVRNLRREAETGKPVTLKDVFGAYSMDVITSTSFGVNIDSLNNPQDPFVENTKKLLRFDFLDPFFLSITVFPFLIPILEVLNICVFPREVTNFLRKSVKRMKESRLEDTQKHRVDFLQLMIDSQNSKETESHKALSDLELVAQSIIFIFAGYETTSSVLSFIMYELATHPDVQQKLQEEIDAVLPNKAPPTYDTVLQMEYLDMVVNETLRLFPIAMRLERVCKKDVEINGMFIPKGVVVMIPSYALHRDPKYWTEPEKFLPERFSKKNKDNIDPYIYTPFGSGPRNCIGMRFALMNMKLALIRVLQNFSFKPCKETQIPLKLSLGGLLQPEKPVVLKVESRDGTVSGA
Chain of AP2-associated protein kinase 1 (Mus musculus, UniProt Q3UHJ0) (Q3UHJ0 whole entry): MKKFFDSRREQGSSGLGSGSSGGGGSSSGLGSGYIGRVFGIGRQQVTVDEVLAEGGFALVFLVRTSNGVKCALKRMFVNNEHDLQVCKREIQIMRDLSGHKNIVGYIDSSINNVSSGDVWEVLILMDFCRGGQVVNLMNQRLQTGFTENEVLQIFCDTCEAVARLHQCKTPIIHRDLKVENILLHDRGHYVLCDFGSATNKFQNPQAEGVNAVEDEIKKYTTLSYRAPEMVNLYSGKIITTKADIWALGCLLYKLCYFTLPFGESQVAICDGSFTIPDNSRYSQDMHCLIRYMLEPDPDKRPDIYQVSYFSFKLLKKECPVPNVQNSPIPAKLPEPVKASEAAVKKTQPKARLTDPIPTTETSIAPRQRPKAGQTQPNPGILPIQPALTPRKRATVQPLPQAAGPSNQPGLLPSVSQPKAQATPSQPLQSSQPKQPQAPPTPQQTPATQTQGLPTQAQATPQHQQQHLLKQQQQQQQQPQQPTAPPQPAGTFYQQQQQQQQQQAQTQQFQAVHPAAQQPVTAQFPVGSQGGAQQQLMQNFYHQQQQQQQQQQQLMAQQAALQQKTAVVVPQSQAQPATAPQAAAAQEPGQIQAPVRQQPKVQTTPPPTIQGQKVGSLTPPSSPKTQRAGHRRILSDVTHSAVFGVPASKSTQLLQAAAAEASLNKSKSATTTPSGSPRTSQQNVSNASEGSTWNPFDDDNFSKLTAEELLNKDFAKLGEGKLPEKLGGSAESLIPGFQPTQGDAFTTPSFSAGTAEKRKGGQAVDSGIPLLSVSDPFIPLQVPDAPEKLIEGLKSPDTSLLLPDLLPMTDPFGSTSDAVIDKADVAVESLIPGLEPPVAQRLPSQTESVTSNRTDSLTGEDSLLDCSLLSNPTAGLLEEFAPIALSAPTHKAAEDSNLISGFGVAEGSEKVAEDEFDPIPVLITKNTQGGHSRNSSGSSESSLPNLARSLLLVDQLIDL

With `CC(=O)Nc1cc(-c2ccc(OC[C@@H](N)CC(C)C)c(C)c2)ccn1`, the pIC50 was 5.41 in series [1], 9.40 in series [3] and 8.96 in series [5]. In addition, the remaining at 10 min, 0.5 µM in series [2] is 91%; in series [6], 64%; in series [7], 99%. For the same molecule, the pKi in series [4] is 10.10.
Consider `CC(C)C[C@H](N)COc1ccc(-c2ccnc(NCc3ccccc3)c2)cc1`, for which, in series [3], the pIC50 was 6.90.
As to `CC(=O)Nc1cc(-c2cc(F)c(OC[C@@H](N)CC(C)C)c(C(F)(F)F)c2)ccn1`, the figures for the pIC50 in series [1], in series [3] and in series [5] were 6.33, 8.30 and 8.32, respectively. Also, the remaining at 10 min, 0.5 µM amounted to 74% in series [2], 69% in series [6] and 91% in series [7]. Further, in series [4], the negative-log Ki (pKi) was 8.82.
In the case of `CC(C)C[C@](C)(N)COc1cnc(-c2ccnc(Cl)c2)cc1Cl`, in series [1], the pIC50 is under 4.70. Moreover, the remaining at 10 min, 0.5 µM came to 86% in series [2], 92% in series [6] and 98% in series [7].
With `COC(=O)Nc1cc(-c2cc(OC)c(OC[C@@](C)(N)CC(C)C)cn2)ccn1`, the pIC50 in series [1] was under 4.70; in series [3], 8.46. The figures for the remaining at 10 min, 0.5 µM in series [2], in series [6] and in series [7] were 91%, 100% and 96%, respectively.
With `COC(=O)Nc1cc(-c2cc(Cl)c(OC[C@@](C)(N)CC(C)C)cn2)ccn1`, the negative-log IC50 (pIC50) in series [1] is under 4.70; in series [3], 8.96. The remaining at 10 min, 0.5 µM in series [2] was found to be 96%; in series [6], 87%; in series [7] it was 99%. Besides, the pKi in series [4] was 9.96.
`COC(=O)Nc1cc(-c2ccc(OC[C@@](C)(N)CC(C)C)c(F)c2)ccn1`: the pIC50 in series [1] is under 4.70; in series [3], 8.96. Further, the remaining at 10 min, 0.5 µM turned out to be 82% in series [2], 71% in series [6] and 94% in series [7]. Besides, in series [4], the pKi was 9.70.
On to `Cc1cc(-c2cc(C(F)(F)F)c(OC[C@@](C)(N)CC(C)C)cn2)ccn1`, for which the pIC50 in series [1] was under 4.70; in series [3], 8.92. Further, the remaining at 10 min, 0.5 µM in series [2] came out at 90%; in series [6], 65%; in series [7] it was 75%.
For the molecule `CC(=O)Nc1cc(-c2ccc(OC[C@@](C)(N)CC(C)C)c(OC(F)(F)F)c2)ccn1`, the pIC50 in series [1] was 5.02; in series [3], 9.10; in series [5] it was 8.80. The figures for the remaining at 10 min, 0.5 µM in series [2], in series [6] and in series [7] were 54%, 27% and 87%, respectively. Also, in series [4], the pKi is 10.15.
For the molecule `COC(=O)Nc1cc(-c2cc(C(F)(F)F)c(OC[C@@](C)(N)CC(C)C)cn2)ccn1`, the pIC50 is 5.28 in series [1], 9.40 in series [3] and 9.40 in series [5]. For the same molecule, the remaining at 10 min, 0.5 µM turned out to be 80% in series [2], 78% in series [6] and 79% in series [7].
For `CC(=O)Nc1cc(-c2ccc(OC[C@@H](N)CC(C)C)c(OC(F)(F)F)c2)ccn1`, the pIC50 was 6.64 in series [1], 9.30 in series [3] and 9.35 in series [5]. Further, the figures for the remaining at 10 min, 0.5 µM in series [2], in series [6] and in series [7] were 91%, 35% and 80%, respectively. Also, the negative-log Ki (pKi) in series [4] was 10.40.
Take `COC(=O)Nc1cc(-c2ccc(OC[C@@H](N)CC(C)C)c(-c3ccno3)c2)ccn1`: the pIC50 in series [1] was 6.74; in series [3], 9.10; in series [5], 8.39. Also, the remaining at 10 min, 0.5 µM came to 91% in series [2], 53% in series [6] and 76% in series [7]. Besides, in series [4], the pKi is 10.10.
Consider `Cc1cc(-c2cc(C)c(OC[C@@](C)(N)CC(C)C)cn2)ccn1`, for which the results for the remaining at 10 min, 0.5 µM in series [2], in series [6] and in series [7] were 79%, 72% and 72%, respectively. For the same molecule, the pIC50 in series [3] is 7.72. Besides, the negative-log Ki (pKi) in series [4] is 8.33.
On to `COC(=O)Nc1cc(-c2cnc(OC[C@@](C)(N)CC(C)C)cc2C)ccn1`, for which the negative-log IC50 (pIC50) was under 4.70 in series [1] and 6.31 in series [3]. The remaining at 10 min, 0.5 µM stood at 98% in series [2], 69% in series [6] and 87% in series [7]. For the same molecule, the pKi in series [4] was 7.39.
`CC(=O)Nc1cc(-c2ccc(OC[C@@](C)(N)CC(C)C)c(C(F)(F)F)c2)ccn1`: the results for the pIC50 in series [1], in series [3] and in series [5] were 4.85, 9.40 and 9.40, respectively. The remaining at 10 min, 0.5 µM turned out to be 66% in series [2], 54% in series [6] and 90% in series [7]. Moreover, the negative logarithm of the Ki (pKi) in series [4] is 10.40.
In the case of `CC(=O)Nc1cc(-c2ccc(OC[C@@H](N)CC(C)C)c(C(F)(F)F)c2)ccn1`, the pIC50 in series [1] is 6.48; in series [3], 9.40; in series [5] it was 9.12. The remaining at 10 min, 0.5 µM in series [2] was found to be 91%; in series [6], 53%; in series [7], 82%. Also, the negative-log Ki (pKi) in series [4] was 10.40.
Take `CC(=O)Nc1cc(-c2ccc(OC[C@@H](N)CC(C)C)c(Cl)c2)ccn1`: the pIC50 in series [1] was 5.59; in series [3], 9.30; in series [5], 9.70. Besides, the values for the remaining at 10 min, 0.5 µM in series [2], in series [6] and in series [7] were 89%, 86% and 100%, respectively. In addition, the pKi in series [4] was 10.22.
Regarding `CC(=O)Nc1cc(-c2cc(F)c(OC[C@@H](N)CC(C)C)cc2F)ccn1`, the pIC50 was 5.15 in series [1], 8.89 in series [3] and 8.17 in series [5]. Also, the remaining at 10 min, 0.5 µM in series [2] was found to be 78%; in series [6] it was 70%; in series [7], 90%. Besides, the pKi in series [4] is 9.22.
Turning to `CC(=O)Nc1cc(-c2cc(F)c(OC[C@@H](N)CC(C)C)c(Cl)c2)ccn1`, the pIC50 was 6.10 in series [1] and 8.17 in series [5]. The remaining at 10 min, 0.5 µM was 94% in series [2], 75% in series [6] and 97% in series [7]. Moreover, the pKi in series [4] was 8.60.
In the case of `CC(=O)Nc1cc(-c2ccc(OC[C@@H](N)CC(C)C)cc2)ccn1`, the results for the pIC50 in series [3] and in series [5] were 8.34 and 8.09, respectively. The pKi in series [4] is 9.05.
On to `CC(C)C[C@H](N)COc1ccc(-c2ccnc(N)c2)cc1`, for which the pIC50 in series [3] is 7.68. Moreover, the pKi in series [4] was 7.89.
Regarding `CC(=O)Nc1cc(-c2cc(F)c(OC[C@@H](N)CC(C)C)c(F)c2)ccn1`, the pIC50 in series [1] is 5.89. For the same molecule, the remaining at 10 min, 0.5 µM in series [2] turned out to be 90%; in series [6] it was 90%; in series [7], 100%. In addition, the pKi in series [4] is 7.57.
As for `COC(=O)Nc1cc(-c2ccc(OC[C@@](C)(N)CC(C)C)c(CO)c2)ccn1`, the values for the negative-log IC50 (pIC50) in series [1] and in series [5] were under 4.70 and 8.41, respectively. For the same molecule, the remaining at 10 min, 0.5 µM in series [2] was 91%; in series [6], 95%; in series [7], 100%. Further, the negative logarithm of the Ki (pKi) in series [4] is 9.20.
For the molecule `COC(=O)Nc1cc(-c2ccc(OC[C@@](C)(N)CC(C)C)nc2)ccn1`, the negative-log IC50 (pIC50) was under 4.70 in series [1] and 7.55 in series [3]. In addition, the remaining at 10 min, 0.5 µM was 100% in series [2], 79% in series [6] and 96% in series [7]. Also, in series [4], the pKi was 8.31.
For `COC(=O)Nc1cc(-c2cc(C(F)F)c(OC[C@@](C)(N)CC(C)C)cn2)ccn1`, the pIC50 in series [1] was under 4.70; in series [3], 9.40. Moreover, the remaining at 10 min, 0.5 µM in series [2] amounted to 79%; in series [6], 63%; in series [7], 87%. The pKi in series [4] was 10.15.
On to `CC(=O)Nc1cc(-c2ccc(OC[C@@](C)(N)CC(C)C)c(C(F)F)c2)ccn1`, for which the remaining at 10 min, 0.5 µM in series [2] was determined as 74%; in series [6], 57%; in series [7], 84%. Also, the pIC50 in series [3] was 9.22; in series [5], 9.30. The pKi in series [4] is 10.30.
For the molecule `COC(=O)Nc1cc(-c2ccc(OC[C@@H](N)CC(C)C)c(F)c2)ccn1`, the results for the pIC50 in series [1] and in series [3] were 5.68 and 8.92, respectively. Besides, the remaining at 10 min, 0.5 µM in series [2] turned out to be 92%; in series [6], 80%; in series [7], 84%.
Regarding `COC(=O)Nc1cc(-c2ccc(OC[C@@](C)(N)CC(C)C)cn2)ccn1` (racemic), the pIC50 in series [1] is under 4.70; in series [3], 7.64. Moreover, the remaining at 10 min, 0.5 µM amounted to 93% in series [2], 93% in series [6] and 100% in series [7]. Moreover, in series [4], the pKi was 7.74.
For the molecule `COC(=O)Nc1cc(-c2ccc(OC[C@@](C)(N)CC(C)C)c(C)c2C)ccn1` (racemic), the remaining at 10 min, 0.5 µM is 93% in series [2], 70% in series [6] and 83% in series [7]. The negative logarithm of the IC50 (pIC50) was 8.35 in series [3] and 8.01 in series [5]. Further, the pKi in series [4] was 9.59.
